Assay results from article PMC7114147 (Antiviral Research, 2013).
“And” between values parts separate entries of the source, which are not always exact repeats. Equal values may be shown once. Read-outs that look alike come from different tables or passages of the source.

Assays:
[1] = test system: A/H1N1 (A/PR/8/34); assay: microbe, parasite or virus in culture; assay type: cell-based, influenza A virus; conditions: read-out: Antiviral EC50 A/H1N1 (A/PR/8/34)
[2] = test system: A/H3N2 (A/HK/7/87); assay: microbe, parasite or virus in culture; assay type: cell-based
[3] = test system: A/Ned/378/05 (A/H1N1); assay: microbe, parasite or virus in culture; assay type: cell-based; conditions: Influenza A virus, H1N1, MDCK, read-out: Antiviral activity (EC50) A/Ned/378/05
[4] = test system: A/FM/1/47 (A/H1N1); assay: microbe, parasite or virus in culture; assay type: cell-based; conditions: Influenza A virus, H1N1, MDCK, read-out: Antiviral activity (EC50) A/FM/1/47
[5] = test system: A/Ishikawa/7/82 (A/H3N2); assay: microbe, parasite or virus in culture; assay type: cell-based; conditions: Influenza A virus, read-out: Antiviral activity (EC50) A/Ishikawa/7/82
[6] = test system: influenza virus A/PR/8/34; assay type: cell-based
[7] = test system: endosomal pH; assay type: cell-based
[8] = test system: MDCK cells; conditions: dog
[9] = test system: A/Victoria/3/75 (A/H3N2); assay: microbe, parasite or virus in culture; assay type: cell-based; conditions: Influenza A virus, H3N2, read-out: EC50 A/Victoria/3/75
[10] = in vitro; conditions: dog, Cytotoxicity CC50
[11] = biological target: A/M2 wt channel (Influenza A virus, UniProt P0DOF5); assay: biochemical; conditions: pH 5.5, read-out: Activity against A/M2 wt channel, Inhibition at 100 μM (%)
[12] = Influenza A virus, H1N1|PR/8, MDCK
[13] = Influenza A virus, H3N2, MDCK, read-out: Antiviral EC50 A/H3N2 (A/HK/7/87)
[14] = Influenza A virus, H3N2, MDCK, read-out: Antiviral activity (EC50) A/HK/7/87

Sequence of A/M2 wt channel (P0DOF5 whole entry, looked up): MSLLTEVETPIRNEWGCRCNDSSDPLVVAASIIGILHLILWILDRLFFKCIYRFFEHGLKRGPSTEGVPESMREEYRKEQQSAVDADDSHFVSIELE

SMILES | EC50 [1, 12] [µM] | EC50 [2, 13] [µM] | EC50 [2, 14] [µM] | EC50 [3] [µM] | EC50 [4] [µM] | EC50 [5] [µM] | EC99 (2-log10 reduction in virus yield) [6] | Cytotoxicity (MCC) [8] [µM] | also measured
NC12CC3CC(CC(C3)C1)C2 [Amantadine, amantadine] | 53 | 3.4 | 3.4 ± 1.7 | 2 | 5.1 ± 2.4 | 11 ± 8 | 179 μM and 179 ± 53 μM | 500 | Effect on acridine orange staining pattern ([7]; 500 μM): neither of the polycyclic amines tested
C1=CC2C3C4C5C=CC4C24CNCC54C13 [Compound 3, 3-azahexacyclo[7.6.0.0^1,5.0^5,12.0^6,10.0^11,15]pentadeca-7,13-diene] | 14 | 16 | – | – | – | – | – | – | EC50 [1]: 16 µM; EC50 ([2]; read-out: Antiviral EC50 A/H3N2 (A/HK/7/87)): 14 µM; EC50 [9]: > 100 µM; CC50 [10]: > 100 µM
CCC(CC)O[C@@H]1C=C(C(=O)O)C[C@H](N)[C@H]1NC(C)=O [Oseltamivir carboxylate] | – | – | 29 ± 5 | 1.5 ± 0.8 | 16 ± 2 | 3 ± 1 | – | >100 | –
NC(=O)c1ncn([C@@H]2O[C@H](CO)[C@@H](O)[C@H]2O)n1 [Ribavirin] | – | – | 8.6 ± 0.4 | 7.6 ± 1 | 10 ± 1 | 8.8 ± 0.3 | 11 ± 1 μM | >100 | –
CC(N)C12CC3CC(CC(C3)C1)C2 (centres unmarked) [Rimantadine, rimantadine] | 4.6 | 0.17 | 0.17 ± 0.08 | 0.5 ± 0.22 | 1.9 ± 1.1 | 0.45 ± 0.15 | 48 μM and 48 ± 5 μM | >100 | inhibition at 100 µM [11]: 91.4 ± 0.8%; Cytotoxicity MCC (minimum cytotoxic concentration) [8]: 500 µM; CC50 [10]: 230 µM
CC(=O)N[C@H]1[C@H]([C@H](O)[C@H](O)CO)OC(C(=O)O)=C[C@@H]1N=C(N)N [Zanamivir] | – | – | 1.2 ± 0.9 | 1.7 ± 0.5 | 5 ± 1.6 | 8.7 ± 3.8 | – | >100 | –
CO/C1=C\C(C)=C\[C@@H](C)[C@@H](O)[C@@H](C)C/C(C)=C/C=C/[C@H](OC)[C@@H]([C@@H](C)[C@@H](O)[C@H](C)[C@@]2(O)C[C@@H](O)[C@H](C)[C@@H](C(C)C)O2)OC1=O [bafilomycin A1] | – | – | – | – | – | – | – | – | Effect on acridine orange lysosomal red fluorescence [7]: completely inhibited
CCN(CC)CCCC(C)Nc1ccnc2cc(Cl)ccc12 (centres unmarked) [chloroquine] | – | – | – | – | – | – | – | – | Effect on acridine orange lysosomal red fluorescence [7]: a decrease in lysosomal pH and a shift to yellow fluorescence
